Laboratory results from US11628159B2, “Cell-protective compounds and their use” (ETH ZURICH, priority 2017, dated 2023).
Entries after “also recorded” stand apart in the source; their conditions may differ.

B1: RKIP: raf kinase inhibitor protein, a dual-specific GRK2 and Raf kinase inhibitor (protein, UniProt P30086 2-187, looked up)
Phosphatidylethanolamine-bindi …: PVDLSKWSGPLSLQEVDEQPQHPLHVTYAGAAVDELGKVLTPTQVKNRPTSISWDGLDSGKLYTLVLTDPDAPSRKDPKYREWHHFLVVNMKGNDISSGTVLSDYVGSGPPKGTGLHRYVWLVYEQDRPLKCDEPILSNRSGDHRGKFKVASFRKKYELRAPVAGTCYQAEWDDYVPKLYEQLSGK

Experiments:
[1] = tested on: GRK2-mediated phosphorylation of SRSF1; test: Immunoblot of SRSF1 phosphorylation (pSRSF1) in HEK (human embryonic kidney) cells; assay type: cell-based; conditions: 10 microM, 60 h, relative to vehicle
Experimental: A, The GRK2-mediated phosphorylation of SRSF1/Srsf1 was determined by immunoblot in lysates from isolated neonatal cardiomyocytes from Tg-SRSF1 mice after incubation for 60 h with 10 microM of paroxetine, 1-(1,3-benzodioxol-5-yl)-4-(cyclopropane-carbonyl)-3-hydroxy-2-phenyl-2H-pyrrol-5-one (“Compound-1”) or 4-(1,3-benzodioxol-5-yl)pyrimidine (“Compound-4”) relative to vehicle-treated control (“C”) cardiomyocytes. B, Immunoblot detection of GRK2-mediated phosphorylation of SRSF1 (pSRSF1) was performed with lysates from HEK (human embryonic kidney) cells incubated for 60 h with 10 microM of 4-(1,3-benzodioxol-5-yl)pyrimidine (“Compound-4”), 1-(1,3-benzodioxol-5-ylmethyl)-5-(4-chlorophenyl)-2-methyl-pyrrole-3-carboxamide (“Compound-24”) or (4R)-N3-(1,3-benzodioxol-5-ylmethyl)-N4-[[3-(trifluoromethyl)phenyl]-methyl]pyrrolidine-3,4-dicarboxamide (“Compound-5”) relative to vehicle-treated controls (“C”).
Briefly, the hearts were dissected out from 2-3 day-old mice, atria and aorta were removed, and the hearts were transferred into sterile buffer A (137 mM NaCl, 5.36 mM KCl, 0.81 mM MgSO4, 5.55 mM dextrose, 0.44 mM KH2PO4, 0.34 mM Na2HPO4, 20 mM HEPES, 100 U/ml penicillin, 100 microg/ml streptomycin, pH 7.4). […]

[2] = tested on: GRK2-mediated phosphorylation of Srsf1; test: Cardiac Srsf1 phosphorylation under basal conditions in non-transgenic B6 mice after short-term treatment; assay type: in vivo, mouse; conditions: 10 mg/kg i.p., 5 h, immunoblot, relative to vehicle
Experimental: A, The GRK2-mediated phosphorylation of Srsf1 was determined by immunoblot in cardiac lysates prepared from hearts of non-transgenic B6 mice after treatment (i.p.) for 5 h with 10 mg/kg of 1-(1,3-benzodioxol-5-yl)-4-(cyclopropane-carbonyl)-3-hydroxy-2-phenyl-2H-pyrrol-5-one (“Compound-1”), 4-(1,3-benzodioxol-5-yl)pyrimidine (“Compound-4”), 1-(1,3-benzodioxol-5-ylmethyl)-5-(4-fluorophenyl)-2-methyl-pyrrole-3-carboxamide (“Compound-2”), or (4R)-N3-(1,3-benzodioxol-5-ylmethyl)-N4-[[3-(trifluoromethyl)phenyl]-methyl]pyrrolidine-3,4-dicarboxamide (“Compound-5”) relative to vehicle-treated B6 controls (“con”). […] B, Left panel: The AAC-induced cardiac p-Srsf1 content was determined in cardiac lysates from B6 mice with AAC after treatment for 7 days with 5 mg/kg/d of 1-(1,3-benzodioxol-5-yl)-4-(cyclopropane-carbonyl)-3-hydroxy-2-phenyl-2H-pyrrol-5-one (“Compound-1”) or (4R)-N3-(1,3-benzodioxol-5-ylmethyl)-N4-[[3-(trifluoromethyl)phenyl]-methyl]pyrrolidine-3,4-dicarboxamide (“Compound-5”) relative to vehicle-treated B6 controls with AAC (“AAC-con”). […] Right and lower panels: Cardiac function parameters were determined by echocardiography in B6 mice with AAC after treatment for 7 days with “Compound-1” or “Compound-5” relative to vehicle-treated B6 controls with AAC ((±s.d.; n=5 (A) and n=3 (B); Dunnett's Multiple Comparison Test vs. con (A) or AAC-con (B)).

[3] = tested on: B6 mice with AAC; test: Chronic pressure overload (AAC) model of heart failure, oral treatment for 2 months; assay type: in vivo, mouse; conditions: for left ventricular ejection fraction: B6 mice, oral 2 months, Compound-1 3 mg/kg/d, Compound-4 5 mg/kg/d, untreated AAC 28.6%±3.5%, ±s.d., n=5
Experimental: A, The left ventricular ejection fraction was determined in 6 month-old male B6 mice with chronic pressure overload imposed by 3 months of AAC and oral treatment with Compound-1 (AAC+compd-1) and Compound-4 (AAC+compd-4) relative to untreated AAC controls. Treatment was started one month after AAC induction and was continued for 2 months. Only mice with heart failure (ejection fraction <34% after one month of AAC) were included in the study (±s.d., n=5/group, ***p=0.0006, **p=0.0051 vs. untreated AAC; Dunnett's multiple comparison test).
We investigated whether the new small molecule GRK2 inhibitors, Compound-1 (1-(1,3-benzodioxol-5-yl)-4-(cyclopropanecarbonyl)-3-hydroxy-2-phenyl-2H-pyrrol-5-one)) and Compound-4 (4-(1,3-benzodioxol-5-yl)pyrimidine) could retard symptoms of heart failure in a chronic pressure overload model of heart failure imposed by abdominal aortic constriction (AAC). Compound-1 (3 mg/kg/d) and Compound-4 (5 mg/kg/d) were applied orally in the AAC-induced model of heart failure. Oral treatment with Compound-1 and Compound-4 was initiated in B6 mice with symptoms of heart failure (left ventricular ejection fraction <34%) induced by four weeks of AAC.
Chronic pressure overload imposed by abdominal aortic constriction (AAC) was used as an experimental model to induce cardiac hypertrophy and signs of heart failure. Aortic constriction of the abdominal aorta was performed in tribromoethanol-anesthetized 8-12 week-old transgenic mice or non-transgenic B6 controls as described (AbdAlla S, et al., Cardiovasc. Hematological Agents Med. Chem. 9, 190-206 (2011)). The abdominal aorta was constricted above the suprarenal artery by tying a 7-0 silk suture ligature against a blunt 26-gauge needle. Age-matched controls underwent identical surgical procedure except for ligation of the aorta (sham-operated mice).

[4] = tested on: B6 mice with AAC; test: Chronic pressure overload (AAC) model, 7 days of treatment: cardiac p-Srsf1 and echocardiography; assay type: in vivo, mouse; conditions: 5 mg/kg/d for 7 days
Experimental: A, The GRK2-mediated phosphorylation of Srsf1 was determined by immunoblot in cardiac lysates prepared from hearts of non-transgenic B6 mice after treatment (i.p.) for 5 h with 10 mg/kg of 1-(1,3-benzodioxol-5-yl)-4-(cyclopropane-carbonyl)-3-hydroxy-2-phenyl-2H-pyrrol-5-one (“Compound-1”), 4-(1,3-benzodioxol-5-yl)pyrimidine (“Compound-4”), 1-(1,3-benzodioxol-5-ylmethyl)-5-(4-fluorophenyl)-2-methyl-pyrrole-3-carboxamide (“Compound-2”), or (4R)-N3-(1,3-benzodioxol-5-ylmethyl)-N4-[[3-(trifluoromethyl)phenyl]-methyl]pyrrolidine-3,4-dicarboxamide (“Compound-5”) relative to vehicle-treated B6 controls (“con”). […] B, Left panel: The AAC-induced cardiac p-Srsf1 content was determined in cardiac lysates from B6 mice with AAC after treatment for 7 days with 5 mg/kg/d of 1-(1,3-benzodioxol-5-yl)-4-(cyclopropane-carbonyl)-3-hydroxy-2-phenyl-2H-pyrrol-5-one (“Compound-1”) or (4R)-N3-(1,3-benzodioxol-5-ylmethyl)-N4-[[3-(trifluoromethyl)phenyl]-methyl]pyrrolidine-3,4-dicarboxamide (“Compound-5”) relative to vehicle-treated B6 controls with AAC (“AAC-con”). […] Right and lower panels: Cardiac function parameters were determined by echocardiography in B6 mice with AAC after treatment for 7 days with “Compound-1” or “Compound-5” relative to vehicle-treated B6 controls with AAC ((±s.d.; n=5 (A) and n=3 (B); Dunnett's Multiple Comparison Test vs. con (A) or AAC-con (B)). […]

[5] = tested on: GPCR phosphorylation; conditions: Lorenz K, et al., Nature 426, 574-579 (2003); read-out: reported IC50 value for RKIP-mediated inhibition of GPCR phosphorylation; cited from earlier work

Molecule	SRSF1 phosphorylation in human kidney cells [1]	GRK2-mediated Srsf1 phosphorylation under basal conditions in the hearts of non-transgenic B6 mice [2]	left ventricular ejection fraction ([3]; 3 months AAC) [%]	cardiac performance after chronic pressure overload imposed by AAC ([4]; echocardiography)	chronic pressure overload-induced cardiac p-Srsf1 content ([4]; relative to vehicle)	cardiovascular disease-induced ageing (grey coloring of the hair) ([3]; 2 months (8 weeks) of treatment, AAC mice)	AAC-induced cardiac hypertrophy (histology) ([3]; 3 months AAC, 2 months oral treatment)	IC50 [5] [nM]
c1cc(-c2ccc3c(c2)OCO3)ncn1 [Compound-4, 4-(1,3-benzodioxol-5-yl)pyrimidine]	inhibited	decreased	38.2±3.7	–	–	–	–	–
O=C(C1=C(O)C(c2ccccc2)N(c2ccc3c(c2)OCO3)C1=O)C1CC1 (stereo not shown) [Compound-1, 1-(1,3-benzodioxol-5-yl)-4-(cyclopropane-carbonyl)-3-hydroxy-2-phenyl-2H-pyrrol-5-one]	–	decreased	41.4±4.8	improved	retarded	substantially retarded	retards; also recorded: decrease	–
B1	–	–	–	–	–	–	–	460
